{"source": "patent US20120309622A1", "about": "“HERBICIDES CONTAINING SUBSTITUTED THIEN-3-YL-SULPHONYLAMINIO(THIO)CARBONYL-TRIAZOLIN(ETHI)ONES” (BAYER INTELLECTUAL PROPERTY GMBH, priority 2001, published 2012)", "assay_type_in_all_cases": "in vivo", "key": {"[1]": {"test_system": "Galium aparine", "assay": "Post-emergence test/greenhouse, % damage after three weeks"}, "[2]": {"test_system": "Matricaria inodora", "assay": "Post-emergence test/greenhouse, % damage after three weeks", "description": "(§1) The expected action for a given combination of two herbicides can be calculated as follows (cf. COLBY, S. R.: “Calculating synergistic and antagonistic responses of herbicide combinations”, Weeds 15, pages 20-22, 1967):\n(§2) If • X=% damage by herbicide A (active compound of the formula I) at an application rate of p kg/ha and • Y=% damage by herbicide B (active compound of the formula II) at an application rate of q kg/ha and • E=the expected damage of herbicides A+B at an application rate of p+q kg/ha, then\n(§3) If the actual damage exceeds the calculated value, the combination has a superadditive effect, that is to say a synergistic effect.\n(§4) Test plants are grown under control conditions (temperature and light). Once the plants have reached a height of 5 to 15 cm, the test compound or the combination of test compounds is applied by spraying such that the particular amounts of active compound desired are applied per unit area. The concentration of the spray liquor is chosen so that the particular amounts of active compound desired are applied in 500 litres of water/ha.\n(§5) Following the spray application, the plant containers are kept in the greenhouse under constant light and temperature conditions.\n(§6) After three weeks, the degree of damage to the plants is rated in % damage in comparison to the development of the untreated control.\n(§7) The figures denote: • 0%=no effect (like untreated control) • 100%=total destruction"}, "[3]": {"test_system": "Digitaria sanguinalis", "assay": "Post-emergence test/greenhouse, % damage after three weeks", "description": "as §1, §2, §3, §4, §5, §6, §7"}, "[4]": {"test_system": "Veronica persicaria", "assay": "Post-emergence test/greenhouse, % damage after three weeks", "procedure": "as §1, §3\n(§8) Test plants are grown under control conditions (temperature and light).\nas §5, §6"}, "[5]": {"test_system": "Abutilon theophrasti", "assay": "Post-emergence test/greenhouse, % damage after three weeks", "description": "as §1, §2, §3, §4, §5, §6, §7"}, "[6]": {"test_system": "Avena fatua", "assay": "Post-emergence test/greenhouse, % damage after three weeks", "description": "as §1, §2, §3, §4, §5, §6, §7"}, "[7]": {"test_system": "Xanthium strumarium", "assay": "Post-emergence test/greenhouse, % damage after three weeks", "description": "as §1, §2, §3, §4, §5, §6, §7"}, "[8]": {"test_system": "Cassia tora", "assay": "Post-emergence test/greenhouse, % damage after three weeks", "procedure": "as §1, §3, §8, §5, §6"}, "[9]": {"test_system": "Polygonum convolvolus", "assay": "Post-emergence test/greenhouse, % damage after three weeks"}, "[10]": {"test_system": "Bromus secalinus", "assay": "Post-emergence test/greenhouse, % damage after three weeks", "procedure": "as §1, §3, §8, §5, §6"}, "[11]": {"test_system": "Chenopodium album", "assay": "Post-emergence test/greenhouse, % damage after three weeks", "description": "as §1, §2, §3, §4, §5, §6, §7"}, "[12]": {"test_system": "test plants", "assay": "Post-emergence test/greenhouse, % damage after three weeks (further test plants, Tables A-1-30 to A-1-104)", "description": "as §1, §2, §3, §4, §5, §6, §7"}, "[13]": {"conditions": "application rate 125 g of ai/ha"}}}
{"compound": "Cc1cc(Cl)ccc1O[C@@H](C)C(=O)O", "note": "[mecoprop-P]", "values": [{"measurement": "Galium aparine observed", "setting": "[1]; 125 g of ai/ha", "result": 20, "unit": "%"}, {"measurement": "Galium aparine observed", "setting": "[1]; 250 g of ai/ha", "result": 40, "unit": "%"}, {"measurement": "Matricaria inodora observed", "setting": "[2]; 125 g of ai/ha", "result": 0, "unit": "%"}, {"measurement": "Matricaria inodora observed", "setting": "[2]; 250 g of ai/ha", "result": 0, "unit": "%"}, {"measurement": "Digitaria sanguinalis observed", "setting": "[3]; 125 g of ai/ha", "result": 40, "unit": "%"}, {"measurement": "Digitaria sanguinalis observed", "setting": "[3]; 250 g of ai/ha", "result": 70, "unit": "%"}]}
{"compound": "COc1cc(OC)n2nc(S(=O)(=O)Nc3c(Cl)ccc(C)c3Cl)nc2n1", "note": "[metosulam, N-(2,6-dichloro-3-methylphenyl)-5,7-dimethoxy-1,2,4-tri-azolo[1,5-a]-pyrimidine-2-sulphonamide, reference compound]", "values": [{"measurement": "Veronica persicaria observed", "setting": "[4]; 4 g of ai/ha", "result": 80, "unit": "%"}, {"measurement": "Activity against Abutilon theophrasti (%)", "setting": "[5]; 12.5 g of a.i./ha", "result": 60, "unit": "%"}, {"measurement": "Activity against Abutilon theophrasti (%)", "setting": "[5]; 25 g of a.i./ha", "result": 70, "unit": "%"}, {"measurement": "Avena fatua observed", "setting": "[6]; 8 g of ai/ha", "result": 0, "unit": "%"}, {"measurement": "Activity against Xanthium strumarum (%)", "setting": "[7]; 12.5 g of a.i./ha", "result": 60, "unit": "%"}, {"measurement": "Activity against Xanthium strumarum (%)", "setting": "[7]; 25 g of a.i./ha", "result": 90, "unit": "%"}, {"measurement": "Digitaria sanguinalis observed", "setting": "[3]; 8 g of ai/ha", "result": 30, "unit": "%"}]}
{"compound": "CCCOc1nn(C(=O)[N-]S(=O)(=O)c2ccccc2C(=O)OC)c(=O)n1C.[Na+]", "note": "[propoxycarbazone-sodium]", "values": [{"measurement": "Veronica persicaria observed", "setting": "[4]; 60 g of ai/ha", "result": 40, "unit": "%"}, {"measurement": "Cassia tora observed", "setting": "[8]; 30 g of ai/ha", "result": 30, "unit": "%"}, {"measurement": "Polygonum convolvolus observed", "setting": "[9]; 30 g of ai/ha", "result": 0, "unit": "%"}, {"measurement": "Polygonum convolvolus observed", "setting": "[9]; 60 g of ai/ha", "result": 0, "unit": "%"}]}
{"compound": "CCS(=O)(=O)c1cccnc1S(=O)(=O)NC(=O)Nc1nc(OC)cc(OC)n1", "note": "[rimsulfuron]", "values": [{"measurement": "Cassia tora observed", "setting": "[8]; 4 g of ai/ha", "result": 60, "unit": "%"}, {"measurement": "Cassia tora observed", "setting": "[8]; 8 g of ai/ha", "result": 80, "unit": "%"}, {"measurement": "Abutilon theophrasti observed", "setting": "[5]; 4 g of ai/ha", "result": 70, "unit": "%"}, {"measurement": "Avena fatua observed", "setting": "[6]; 4 g of ai/ha", "result": 70, "unit": "%"}, {"measurement": "Avena fatua observed", "setting": "[6]; 8 g of ai/ha", "result": 70, "unit": "%"}]}
{"compound": "flufenacet", "values": [{"measurement": "Bromus secalinus observed", "setting": "[10]; application rate 30 g of ai/ha", "result": 0, "unit": "%"}, {"measurement": "Bromus secalinus observed", "setting": "[10]; application rate 60 g of ai/ha", "result": 20, "unit": "%"}, {"measurement": "Bromus secalinus observed", "setting": "[10]; [13]", "result": 40, "unit": "%"}, {"measurement": "Chenopodium album observed", "setting": "[11]; application rate 30 g of ai/ha", "result": 0, "unit": "%"}, {"measurement": "Chenopodium album observed", "setting": "[11]; application rate 60 g of ai/ha", "result": 0, "unit": "%"}, {"measurement": "Chenopodium album observed", "setting": "[11]; [13]", "result": 0, "unit": "%"}, {"measurement": "Polygonum convolvolus observed", "setting": "[12]; application rate 30 g of ai/ha", "result": 0, "unit": "%"}, {"measurement": "Polygonum convolvolus observed", "setting": "[12]; application rate 60 g of ai/ha", "result": 0, "unit": "%"}, {"measurement": "Polygonum convolvolus observed", "setting": "[12]; [13]", "result": 0, "unit": "%"}]}
